Measurements published in publication PMC3199943, “Screening the MayBridge Rule of 3 Fragment Library for Compounds That Interact with the Trypanosoma brucei myo-Inositol-3-Phosphate Synthase and/or Show Trypanocidal Activity” (Molecular Biology International, 2011).

System: HeLa cells
Assay: cells
Settings: Homo sapiens, HeLa, 65 h, read-out: HeLa Cells Alamar Blue
Method in brief: (§1)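 Alamar Blue read-out after a 5 h dye incubation that followed ~65 h compound exposure. Cells: HeLa or A549, 2 × 10^4/well, DMEM + 10% FCS + 2 mM L-Glutamine.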

SMILES	viability at 500 µM
COC(=O)C1NCCS1 (centres unmarked) [compound 44]	85.7 ± 19.3%
NC1CCSCC1 [compound 45, tetrahydrothiopyran‐4‐ylamine]	88.6 ± 3.1%
N#CCc1ccccn1 [compound 46, 2‐(2‐pyridyl)acetonitrile]	63.2 ± 17.9%
N#Cc1ccc(F)cc1 [compound 51, 4‐fluorobenzonitrile]	90.9 ± 7.5%
CCc1cccc(C)n1 [compound 52, 2‐ethyl‐6‐methylpyridine]	89.7 ± 9.7%
Cc1noc(C)c1C#N [compound 53, 3,5‐dimethyl‐4‐isoxazolecarbonitrile]	89.3 ± 2.8%
CNCc1ccncc1 [compound 56, N‐methyl‐N‐(4‐pyridinylmethyl)amine]	87.9 ± 9.9%
COc1cccc(N)c1 [compound 61, 3‐methoxyaniline]	48.7 ± 8.9%
Cc1ccc(O)c(C)n1 [compound 64, 2,6‐dimethylpyridin‐3‐ol]	103 ± 13.2%
COc1ncccc1N [compound 65, 2‐methoxypyridin‐3‐amine]	66.6 ± 18.7%
Nc1ccc(CO)cn1 [compound 66, (6‐amino‐3‐pyridinyl)methanol]	80.3 ± 9.7%
Cc1nc(C#N)cs1 [compound 67, 2‐methyl‐1,3‐thiazole‐4‐carbonitrile]	96.1 ± 9.2%
Cc1nn(C)c(C)c1N [compound 72, 1,3,5‐trimethyl‐1H‐pyrazol‐4‐amine]	78.5 ± 0.8%
Cc1occc(=O)c1O [compound 74, 3‐hydroxy‐2‐methyl‐4H‐pyran‐4‐one]	107 ± 10.5%
Cc1occc1C(=O)O [compound 75, 2-methyl-3-furoic acid]	63.3 ± 5.9%
Cc1cc(CO)nn1C [compound 76, (1,5‐dimethyl‐1H‐pyrazol‐3‐yl)methanol]	99.6 ± 4.5%
Cc1nc(CO)c(C)o1 [compound 78, (2,5‐dimethyl‐1,3‐oxazol‐4‐yl)methanol]	92.7 ± 11.5%
NCCc1cccs1 [compound 81, 2‐(2‐thienyl)ethylamine]	117 ± 8.9%
CCCc1nccs1 [compound 82, 2‐propyl‐1,3‐thiazole]	96.8 ± 11%

Same assay, conditions: Homo sapiens, HeLa, 65 h, read-out: HeLa Cells Alamar Blue (% survival)

SMILES	viability at 500 µM
COC(=O)C1NCCS1 (centres unmarked) [compound 44]	108 ± 15.9%
Cc1occc1C(=O)O [compound 75, 2-methyl-3-furoic acid]	63.3 ± 5.9%

Same assay, conditions: Homo sapiens, HeLa, 65 h, read-out: HeLa Cells Alamar Blue, Supplementary Table 1; compound 0.5 mM; percentage of controls; mean ± SD (n=3) or SE (n=2)

SMILES	viability at 500 µM
Cc1cc(N)no1 [compound 9, 5‐methylisoxazol‐3‐amine]	105 ± 6.2%
Oc1ccc(F)cc1 [compound 29, 4‐fluorophenol]	96.2 ± 7.7%

Same assay, conditions: Supplementary Table 1; compound 0.5 mM; percentage of controls; mean ± SD (n=3) or SE (n=2)

SMILES	HeLa Cells Alamar Blue
CC1=NNC(=O)CC1 [compound 31, 6‐methyl‐2,3,4,5‐tetrahydropyridazin‐3‐one]	85.4 ± 6.1 percentage of controls

System: A549 cells
Assay: Cytotoxicity against A549 cells, Alamar Blue
Type: cell-based
Settings: Homo sapiens, A549, 65 h; Supplementary Table 1; compound 0.5 mM; percentage of controls (n=1)
Method in brief: as §1

SMILES	viability at 500 µM
Cc1cc(N)no1 [compound 9, 5‐methylisoxazol‐3‐amine]	112%
Oc1ccc(F)cc1 [compound 29, 4‐fluorophenol]	88.4%
COC(=O)C1NCCS1 (centres unmarked) [compound 44]	75.7%
NC1CCSCC1 [compound 45, tetrahydrothiopyran‐4‐ylamine]	95.6%
N#CCc1ccccn1 [compound 46, 2‐(2‐pyridyl)acetonitrile]	82.6%
N#Cc1ccc(F)cc1 [compound 51, 4‐fluorobenzonitrile]	64.2%
CCc1cccc(C)n1 [compound 52, 2‐ethyl‐6‐methylpyridine]	70.8%
Cc1noc(C)c1C#N [compound 53, 3,5‐dimethyl‐4‐isoxazolecarbonitrile]	84.5%
CNCc1ccncc1 [compound 56, N‐methyl‐N‐(4‐pyridinylmethyl)amine]	78.5%
COc1cccc(N)c1 [compound 61, 3‐methoxyaniline]	69.2%
Cc1ccc(O)c(C)n1 [compound 64, 2,6‐dimethylpyridin‐3‐ol]	80.6%
COc1ncccc1N [compound 65, 2‐methoxypyridin‐3‐amine]	75.4%
Nc1ccc(CO)cn1 [compound 66, (6‐amino‐3‐pyridinyl)methanol]	85.1%
Cc1nc(C#N)cs1 [compound 67, 2‐methyl‐1,3‐thiazole‐4‐carbonitrile]	89.7%
Cc1nn(C)c(C)c1N [compound 72, 1,3,5‐trimethyl‐1H‐pyrazol‐4‐amine]	70.9%
Cc1occc(=O)c1O [compound 74, 3‐hydroxy‐2‐methyl‐4H‐pyran‐4‐one]	105%
Cc1occc1C(=O)O [compound 75, 2-methyl-3-furoic acid]	110%
Cc1cc(CO)nn1C [compound 76, (1,5‐dimethyl‐1H‐pyrazol‐3‐yl)methanol]	100%
Cc1nc(CO)c(C)o1 [compound 78, (2,5‐dimethyl‐1,3‐oxazol‐4‐yl)methanol]	110%
NCCc1cccs1 [compound 81, 2‐(2‐thienyl)ethylamine]	119%
CCCc1nccs1 [compound 82, 2‐propyl‐1,3‐thiazole]	114%

Same assay, conditions: Supplementary Table 1; compound 0.5 mM; percentage of controls (n=1)

SMILES	A549 Cells Alamar Blue
CC1=NNC(=O)CC1 [compound 31, 6‐methyl‐2,3,4,5‐tetrahydropyridazin‐3‐one]	68.2 percentage of controls

Molecular target: T1, TbINO1 (Trypanosoma brucei brucei, UniProt Q5QQ46)
T1 sequence (Q5QQ46 1-528): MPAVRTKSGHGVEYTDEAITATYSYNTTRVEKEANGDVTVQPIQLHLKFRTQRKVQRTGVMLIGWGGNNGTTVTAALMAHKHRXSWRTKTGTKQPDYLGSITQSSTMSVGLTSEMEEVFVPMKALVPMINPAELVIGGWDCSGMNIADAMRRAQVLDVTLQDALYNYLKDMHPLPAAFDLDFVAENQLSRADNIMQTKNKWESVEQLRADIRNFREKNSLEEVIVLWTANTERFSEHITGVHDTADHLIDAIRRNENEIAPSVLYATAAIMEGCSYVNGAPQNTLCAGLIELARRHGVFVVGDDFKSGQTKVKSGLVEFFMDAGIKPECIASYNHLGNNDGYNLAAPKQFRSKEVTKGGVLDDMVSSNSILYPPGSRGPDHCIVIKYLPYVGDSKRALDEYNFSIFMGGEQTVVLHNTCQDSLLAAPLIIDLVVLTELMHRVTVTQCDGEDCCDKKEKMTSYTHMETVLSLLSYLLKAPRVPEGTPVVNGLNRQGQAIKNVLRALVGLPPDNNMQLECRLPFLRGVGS
Assay: biochemical
Type: binding
Settings: Supplementary Table 1; compound 1mM; mean ± SD from Boltzman curve fitting

SMILES	Tb Ino1 Tm Shift [˚C]
CC1=NNC(=O)CC1 [compound 31, 6‐methyl‐2,3,4,5‐tetrahydropyridazin‐3‐one]	0.22 ± 0.07 °C

Same assay, conditions: Supplementary Table 1; compound 1mM; mean ± SD from Boltzman curve fitting; read-out: Tb Ino1 Tm Shift [˚C]

SMILES	ΔTm at 1000 µM
N#Cc1ccc(F)cc1 [compound 51, 4‐fluorobenzonitrile]	0.1 ± 0.08 °C
COc1cccc(N)c1 [compound 61, 3‐methoxyaniline]	0.19 ± 0.07 °C
NCCc1cccs1 [compound 81, 2‐(2‐thienyl)ethylamine]	0.09 ± 0.07 °C

Same assay, conditions: inhibitor, 4 mM, positive control

SMILES	TbINO1 Tm increase
O=CC[C@@H](O)[C@H](O)[C@H](O)COP(=O)(O)O [2-deoxy-glucose-6-phosphate, reference compound]	2.84 ± 0.47 °C

Same assay, conditions: read-out: Tb Ino1 Tm Shift [˚C]

SMILES	ΔTm at 1000 µM
Cc1cc(N)no1 [compound 9, 5‐methylisoxazol‐3‐amine]	0.13 ± 0.06 °C
Oc1ccc(F)cc1 [compound 29, 4‐fluorophenol]	0.23 ± 0.08 °C
COC(=O)C1NCCS1 (centres unmarked) [compound 44]	0.11 ± 0.06 °C
NC1CCSCC1 [compound 45, tetrahydrothiopyran‐4‐ylamine]	0.24 ± 0.07 °C
N#CCc1ccccn1 [compound 46, 2‐(2‐pyridyl)acetonitrile]	1.11 ± 0.24 °C
CCc1cccc(C)n1 [compound 52, 2‐ethyl‐6‐methylpyridine]	0.4 ± 0.08 °C
Cc1noc(C)c1C#N [compound 53, 3,5‐dimethyl‐4‐isoxazolecarbonitrile]	0.52 ± 0.09 °C
CNCc1ccncc1 [compound 56, N‐methyl‐N‐(4‐pyridinylmethyl)amine]	0.01 ± 0.08 °C
Cc1ccc(O)c(C)n1 [compound 64, 2,6‐dimethylpyridin‐3‐ol]	0.13 ± 0.07 °C
COc1ncccc1N [compound 65, 2‐methoxypyridin‐3‐amine]	1.46 ± 0.07 °C
Nc1ccc(CO)cn1 [compound 66, (6‐amino‐3‐pyridinyl)methanol]	0.24 ± 0.09 °C
Cc1nc(C#N)cs1 [compound 67, 2‐methyl‐1,3‐thiazole‐4‐carbonitrile]	0.01 ± 0.07 °C
Cc1nn(C)c(C)c1N [compound 72, 1,3,5‐trimethyl‐1H‐pyrazol‐4‐amine]	1.19 ± 0.08 °C
Cc1occc(=O)c1O [compound 74, 3‐hydroxy‐2‐methyl‐4H‐pyran‐4‐one]	1.13 ± 0.08 °C
Cc1cc(CO)nn1C [compound 76, (1,5‐dimethyl‐1H‐pyrazol‐3‐yl)methanol]	0.56 ± 0.08 °C
Cc1nc(CO)c(C)o1 [compound 78, (2,5‐dimethyl‐1,3‐oxazol‐4‐yl)methanol]	0.13 ± 0.08 °C
CCCc1nccs1 [compound 82, 2‐propyl‐1,3‐thiazole]	0.22 ± 0.07 °C

Same assay, conditions: read-out: TbIno1 Tm shift [°C]

SMILES	ΔTm at 1000 µM
COC(=O)C1NCCS1 (centres unmarked) [compound 44]	2.81 ± 0.1 °C
Cc1occc1C(=O)O [compound 75, 2-methyl-3-furoic acid]	3.89 ± 0.07 °C

Same assay, conditions: substrate, 5 mM, positive control

SMILES	TbINO1 Tm increase
O=C[C@H](O)[C@@H](O)[C@H](O)[C@H](O)COP(=O)(O)O [glucose-6-phosphate, reference compound]	0.70 ± 0.28 °C
